From patent publication US9718858B2, “Tunable control of protein degradation in synthetic and endogenous bacterial systems” (priority 2013, dated 2017) come the findings set out here.

Assay [1] deals with mf-Lon. The assay can be described thus: E. coli-based GFP-pdt degradation platform, Example 2 (genomically integrated codon-optimized mf-Lon, flow cytometry). To be noted: for 50 ng/ml ATc (GFP fluorescence, untagged GFP set to 100) / 0 ng/ml ATc (GFP fluorescence, untagged GFP set to 100): GFP-pdt fusion in E. coli, flow cytometry, 6 hours; for 50 ng/ml ATc (GFP fluorescence, untagged GFP set to 100): mf-Lon induced with 50 ng/ml ATc; for 0 ng/ml ATc (GFP fluorescence, untagged GFP set to 100): no mf-Lon induction. It is filed as cell-based. The method, then:
Strains and Reagents. The E. coli K-12 derivative strain MG1655Pro (F-, λ-, Spr, lacI, tetR) published previously^2,42 was used as the wild-type strain in all cases except for the synthetic toggle experiments where the inventors used MG1655ΔlacIΔaraBAD, prepared as described in the herein. Unless otherwise noted, E. coli were grown in Luria broth (LB) at 30° C. with shaking and mf-Lon expression was induced with 50 ng/ml ATc. L. lactis strain […] was used for all L. lactis experiments and grown in M17 broth containing 0.5% glucose. Antibiotics carbenicillin (100 ug/ml), kanamycin (30 ug/ml) and erythromycin (10 ug/ml) were added to the media when appropriate. All plasmids and strain mutations were verified by sequencing, and plasmid maps will be deposited in GenBank.
E. coli-Based Degradation Platform. The mf-lon gene was codon optimized for E. coli expression, placed under control of the PLtetO promoter, and integrated into the lacZ locus along with 5′ and 3′ transcriptional terminators to block unwanted mf-Lon expression from any proximal genomic promoters. The GFP variant GFPmut3b was used for all GFP expression, and GFP-pdt and mCherry-pdt variants were expressed from the constitutive PlacIq promoter on a high-copy plasmid containing the ColE1 origin and the kanamycin resistance cassette kanR.
Flow Cytometry. Data for GFP and mCherry degradation dynamics were collected using an LSRFortessa cell analyzer equipped with a High Throughput Sampler (BD Biosciences), and data for the synthetic toggle switch were collected using a FACSArian flow cytometer (BD Biosciences). For each measurement, cells were fixed in 1% paraformaldehyde (PFA), held at 4° C. for up to 5 days, and then diluted 1:10 in PBS for analysis. At least 5,000 cells were collected for each measurement and FloJo (Treestar) was used for data analysis. […]

For assay [2], the system named is mf-Lon. The assay can be described thus: GFP-pdt degradation platform in E. coli, Example 1 (plasmid-borne aTc-inducible mf-Lon). To be noted: for Fold Degradation: 0 ng/ml aTc versus 50 ng/ml aTc; for 50 ng/ml aTc (GFP fluorescence, untagged GFP set to 100) / 0 ng/ml aTc (GFP fluorescence, untagged GFP set to 100): GFP-pdt fusion in E. coli, 10 h; for 50 ng/ml aTc (GFP fluorescence, untagged GFP set to 100): mf-Lon induced with 50 ng/ml aTc; for 0 ng/ml aTc (GFP fluorescence, untagged GFP set to 100): no mf-Lon induction. It is filed as cell-based. As for the experimental part:
Strains, Plasmids and Reagents. The E. coli K-12 derivative strain MG1655Pro (F-, λ-, Sp^r, lacI, tetR) published previously^1,46 was used as the wild-type strain in all cases except for the synthetic toggle experiments where MG1655ΔlacIΔaraBAD was prepared and used as described herein. Unless otherwise noted, bacteria were grown in Luria broth (LB) at 30° with shaking and mf-Lon expression was induced with 50 ng/ml aTc. Antibiotics carbenicillin (100 ug/ml) and kanamycin (30 ug/ml) were added to the media when appropriate. All plasmids and strain mutations were verified by sequencing, and plasmid maps will be deposited in GenBank.
GFP Degradation Platform. The GFP variant GFPmut3b^47 was used for all GFP expression. GFP-pdt variants were expressed from the constitutive PlacIq promoter^48 on a high-copy plasmid containing the ColE1 origin and a kanamycin-resistance cassette. The PLtetO promoter was used to express mf-Lon on a medium-copy plasmid containing the P15A origin and ampicillin-resistance cassette.
Flow Cytometry. GFP expression was measured using a […] (BD BIOSCIENCES) flow cytometer with the following voltage settings: FCS, 340; SCS, 270; FITC (for GFP), 520; mCherry, 615. At least 10,000 cells were collected for each measurement and FloJo was used for data analysis.
Plate Fluorimetry and Optical Density. Fluorescence and optical density measurements were made with a SPECTRAMAX M5 microplate reader (MOLECULAR DEVICES) using excitation and emission wavelengths of 488 nm and 520 nm, respectively, with an emission filter cutoff at 515 nm Optical density was measured at 600 nm (0D600). All measurements were made in 200 μl in 96-well clear bottom plates.
PDT Mutagenesis Screens. Polymerase chain reaction (PCR) primers containing randomized nucleotides were used to mutagenize the indicated pdt codons. Plasmids containing the mutagenized tags fused to gfp were co-transformed with the mf-Lon expression plasmid into MG1655Pro. Transformants were picked into 96-well plates, grown to mid-log phase, diluted 1:20 into media with and without 50 ng/ml aTc and measured by plate reader after 10 h growth.

For assay [3], the system named is synthetic toggle switch (LacI/TetR). The assay can be described thus: Protease-driven control of a synthetic toggle switch, Example 2. It counts as cell-based, E. coli. As for the experimental part: Flow Cytometry. Data for GFP and mCherry degradation dynamics were collected using an LSRFortessa cell analyzer equipped with a High Throughput Sampler (BD Biosciences), and data for the synthetic toggle switch were collected using a FACSArian flow cytometer (BD Biosciences). For each measurement, cells were fixed in 1% paraformaldehyde (PFA), held at 4° C. for up to 5 days, and then diluted 1:10 in PBS for analysis. At least 5,000 cells were collected for each measurement and FloJo (Treestar) was used for data analysis.
Synthetic Toggle Switch. The plasmid pKDL071R8, based on pKDL07143, was altered to contain a weakened tetR ribosome binding site (RBS) to enhance toggle bistability in the minimal media conditions used. This plasmid served as the parental strain for all LacI-pdt toggle switch experiments. Pdt variants were fused to lad by overlapping PCR and cloned into pKDL071R8 using SacII and BsrGI. The arabinose inducible PBAD promoter was used to express mf-Lon from a second plasmid. Cells containing the toggle switch and mf-Lon expression plasmids were grown in 200 μl in 96-well round bottom plates at 37° C. in M9 minimal media containing 0.2% glycerol and 0.05% casamino acids, and care was taken to maintain exponential growth throughout the experiment. […]

In the case of “AANKNEENTNEVPTFMLNAGQANYAFA [pdt, reference compound]”, in assay [1], the “GFP-pdt remaining, % of its initial levels after mf-Lon expression” value amounted to 3%; the “50 ng/ml ATc (GFP fluorescence, untagged GFP set to 100)” value is 1%; the “0 ng/ml ATc (GFP fluorescence, untagged GFP set to 100)” value is 50%. Besides, in assay [2], the “Fold Degradation” value was 20.7; the “50 ng/ml aTc (GFP fluorescence, untagged GFP set to 100)” value is listed as 0.6%; the “0 ng/ml aTc (GFP fluorescence, untagged GFP set to 100)” value is 12.5%. Further, the “drop in GFP following mf-Lon induction” value in assay [2] (from initial (steady-state) levels) is given as 21 fold. Also, the “GFP-pdt levels compared with untagged GFP” value in assay [2] (late-log and stationary phase, constitutive expression, no mf-Lon) is on record as “markedly lower”.

As to “pdt#3A: Example 2: aa13-15 FKL, aa24-27 RRRV, SEQ ID NO 114 (AANKNEENTNEVFKLMLNAGQANRRRV)”, in assay [3], the “toggle switching relative to LacI-pdt#3” value is on record as “provided temporal control over the circuit switch rate”. For the same substance, in assay [1], the “50 ng/ml ATc (GFP fluorescence, untagged GFP set to 100)” value is given as 27% and the “0 ng/ml ATc (GFP fluorescence, untagged GFP set to 100)” value is recorded as 115%.

On to “pdt#3C: Example 2: aa13-15 AQP, aa24-27 RRRV, SEQ ID NO 22 (AANKNEENTNEVAQPMLNAGQANRRRV)”, for which, in assay [1], the “50 ng/ml ATc (GFP fluorescence, untagged GFP set to 100)” value stood at 48% and the “0 ng/ml ATc (GFP fluorescence, untagged GFP set to 100)” value is given as 107%.

For the substance “pdt#3E: Example 2: aa13-15 PDG, aa24-27 RRRV, SEQ ID NO 115 (AANKNEENTNEVPDGMLNAGQANRRRV)”, in assay [1], the “50 ng/ml ATc (GFP fluorescence, untagged GFP set to 100)” value was found to be 87% and the “0 ng/ml ATc (GFP fluorescence, untagged GFP set to 100)” value is given as 112%.

In the case of “pdt#3B: Example 2: aa13-15 RAI, aa24-27 RRRV, SEQ ID NO 18 (AANKNEENTNEVRAIMLNAGQANRRRV)”, the “toggle switching relative to LacI-pdt#3” value in assay [3] is given as “provided temporal control over the circuit switch rate”. In addition, in assay [1], the “50 ng/ml ATc (GFP fluorescence, untagged GFP set to 100)” value turned out to be 38% and the “0 ng/ml ATc (GFP fluorescence, untagged GFP set to 100)” value is recorded as 100%.

Regarding “pdt#3D: Example 2: aa13-15 APN, aa24-27 RRRV, SEQ ID NO 19 (AANKNEENTNEVAPNMLNAGQANRRRV)”, in assay [1], the “50 ng/ml ATc (GFP fluorescence, untagged GFP set to 100)” value is 66% and the “0 ng/ml ATc (GFP fluorescence, untagged GFP set to 100)” value was determined as 104%.

Turning to pdt#1 (AANKNEENTNEVPTFMLNAGQANRLQL), in assay [1], the “50 ng/ml ATc (GFP fluorescence, untagged GFP set to 100)” value turned out to be 1% and the “0 ng/ml ATc (GFP fluorescence, untagged GFP set to 100)” value is reported as 40%. Moreover, in assay [2], the “Fold Degradation” value was found to be 24.6; the “50 ng/ml aTc (GFP fluorescence, untagged GFP set to 100)” value was 0.9%; the “0 ng/ml aTc (GFP fluorescence, untagged GFP set to 100)” value stood at 21.8%.
